Test results published in patent US11180518B2, “Phenyl-heterocycle-phenyl derivatives for use in the treatment or prevention of melanoma” (MAX-PLANCK-GESELLSCHAFT ZUR FÖRDERUNG DER WISSENSCHAFTEN …, priority 2017, dated 2021).

Assays:
WM983-B melanoma cells [1] = test: Mitochondrial membrane potential (MitoTracker Red CMXRos); format: cell-based, human; details: single 10 μM dose, as early as 24 hr
Method: (§1) Mitochondrial membrane potential. Melanoma cell lines WM983-B, SK-MEL-5 and WM1158 were treated with anle138b or received DMSO only for 24 or 48 hr. Prior to fixation with 3.7% PFA, the cells were incubated with 200 nM MitoTracker Red CMXRos (Thermo Fisher Scientific, Inc.) for 30 min at 37° C. Confocal image stacks were captured with a 63×NA 1.2 Apochromat water immersion lens on a Zeiss LSM 510 Meta confocal microscope in fluorescence and transmission modes.

WM1158 melanoma cells [2] = test: as above; format: cell-based, human; details: 10 μM, only after 48 hr
Method: as §1

SK-MEL-5 melanoma cells [3] = test: as above; format: cell-based, human; details: single 10 μM dose, as early as 24 hr
Method: as §1

WM983-B melanoma cells [4] = test: Immunoblot analysis of p62/SQSTM1 expression; format: cell-based, human; details: 7.5 μM
Method: For the analysis of p62/SQSTM1 protein expression, WM983-B melanoma whole-cell lysates were separated on 12% SDS-PAGE, transferred onto nitrocellulose membrane, blocked with 3% bovine serum albumin (BSA), probed with an anti-p62/SQSTM1 antibody (Cell Signaling Technology, Inc. Danvers, Mass., USA), followed by incubation with a corresponding HPR-conjugated secondary antibody and chemiluminescent substrate (EMD Millipore, Billerica, Mass., USA). Protein loading was determined by secondary probing with an anti-GAPDH antibody (Thermo Fisher Scientific Inc.).

WM983-B melanoma cells [5] = test: Cell morphology (phase-contrast); format: cell-based, human; details: increasing doses, serum-free medium; time- and dose-dependent
Excerpt: (§2) To assess the possible impact of anle138b as well as anle138c on the different melanoma cell lines, WM983-A, WM983-B and SK-MEL-5, we treated them with increasing doses of either compound, dissolved in dimethyl sulfoxide (DMSO), and added to serum-free culture medium. […] We also observed that treatment with anle138b caused a more rapid morphological change than anle138c. To determine whether the effect of the two anle compounds was related to the amount of α-synuclein produced by the cells, we compared the proliferation of the (VGP) WM983-A high-level and the (RGP/VGP) WM1158 low-level α-synuclein-producing melanoma cells over a period of 96 hr, with replenishment of each anle compound at 48 hr (FIGS. 8A and B).
(§3) 10 or 30 mM stock solutions of anle138b or anle138c were made in DMSO. Since anle138b as well as anle138c bind strongly to FBS, melanoma cells, plated for 24 hr in tissue-culture medium containing 10% FBS, were rinsed three times with serum-free medium prior to addition of anle138b, anle138c, or an equivalent volume of DMSO only in serum-free medium. Forty-eight hours later, the cell culture medium was removed, followed by addition of an equivalent dose of anle138b or anle138c, or DMSO only in serum-free culture medium. […] Proliferation of melanoma cells that had received DMSO only, or were treated with anle138b was determined by counting the cells with a hemocytometer.
(§4) Cell morphology. Phase-contrast or DIC images of the melanoma cells that had been treated for various times with anle138b or anle138c, or had received DMSO only were captured with a 10×NA 0.6 objective on a Zeiss Axiovert 100 microscope with a Hamamatsu Orca charge-coupled device (CCD) camera. At least four images, at random areas per culture dish, were recorded for each time point.

WM1158 melanoma cells [6] = test: Cell morphology (phase-contrast); format: cell-based, human; details: 10 μM, up to 96 hr, replenishment at 48 hr
Excerpt: as §2, §3, §4

SK-MEL-5 melanoma cells [7] = test: Cell morphology (phase-contrast); format: cell-based, human; details: increasing doses, serum-free medium; time- and dose-dependent
Excerpt: as §2, §3, §4

WM983-B melanoma cells [8] = test: Autophagy: LC3 immunofluorescence; format: cell-based, human
Method: We observed a clear effect of the anle compounds on the autophagy pathway of the melanoma cells. […] Following addition of anle138c, the effect was seen later with levels of 8% at 24 hr and 78% after 96 hr.
Autophagy. WM983-B and SK-MEL-5 cells that for 24 or 48 hr were treated with anle138 or had received DMSO only were fixed for 20 min with 3.7% PFA, permeabilized, blocked, and probed with an anti-LC3B [clone 2G6] antibody (nanoTools Antikörpertechnik GmbH & Co. KG, Teningen, Germany), followed by a donkey anti-mouse Alexa-488 secondary antibody and Draq5 DNA counterstain. Confocal image stacks were obtained with a 63×NA 1.2 objective on a Zeiss LSM 510 Meta confocal microscope.

WM983-B melanoma cells [9] = test: Melanoma cell proliferation analysis (hemocytometer counting); format: cell-based, human; details: single dose of 10 μM, 24 hr
Method: (§5) To compare how rapidly anle138b affected the proliferation of melanoma cells, expressing α-synuclein at a high level, we treated the melanoma cell lines, WM983-A (VGP) and WM983-B (MGP), for 24, 48 or 72 hr with 10 μM of anle138b, with replenishment of the compound (10 μM) at 48 hr.
as §3

WM852 melanoma cells = test: LDH cytotoxicity analysis; details: 2, 5, 10 or 15 μM for 96 hr, replenishment at 48 hr
Method: Replicates of WM983-B as well as WM852 melanoma cells were plated at 3×10^5 cells per well in 35 mm tissue culture plates. Twenty-four hours later, the cells were rinsed three times with serum-free medium, followed by addition of increasing doses of anle138b or DMSO only. Forty-eight hours later, the cell culture medium was removed, followed by addition of equivalent doses of anle138b or DMSO only in serum-free medium. Culture medium, collected 48 hr later, was centrifuged to pellet and remove cellular debris. Using a PHERAstar FS microplate reader (BMG LABTECH GmbH, Ortenberg, Germany) and spectrophotometric absorbance measurement, the release of LDH enzyme activity into the tissue culture medium was determined with an LDH cytotoxicity assay kit (Roche Diagnostics Deutschland GmbH, Mannheim, Germany). […] Cells from the DMSO controls were trypsinized, counted, and lysed according to the manufacturer's instructions.

WM983-A melanoma cells = test: Melanoma cell proliferation analysis (hemocytometer counting); format: cell-based, human
Excerpt: as §2, §5
10 or 30 mM stock solutions of anle138b or anle138c were made in DMSO. […] Proliferation of melanoma cells that had received DMSO only, or were treated with anle138b was determined by counting the cells with a hemocytometer.

Brc1cccc(-c2cc(-c3ccc4c(c3)OCO4)n[nH]2)c1 [anle138b, 5-(3-Bromophenyl)-3-(3,4-methylenedioxyphenyl)-1H-pyrazole]
mitochondrial membrane potential (WM983-B melanoma cells [1]): significantly reduced
mitochondrial membrane potential (WM1158 melanoma cells [2]): some reduction
mitochondrial membrane potential (SK-MEL-5 melanoma cells [3]): significantly reduced
p62/SQSTM1 expression (WM983-B melanoma cells [4]; 48 and 72 hr, replenishment at 48 hr, vs DMSO only): noticeably elevated
p62/SQSTM1 expression (WM983-B melanoma cells [4]; 24 hr): did not lead to an increase
morphological changes (WM983-B melanoma cells [5]): major morphological changes
morphology (WM1158 melanoma cells [6]): did not show a significantly altered morphology
morphological changes (SK-MEL-5 melanoma cells [7]): major morphological changes
cells with punctuate upregulation of LC3 (WM983-B melanoma cells [8]; 24 hr, cells still attached): about 60%
cells with punctuate upregulation of LC3 (WM983-B melanoma cells [8]; 48 hr, cells remaining on the dish): 95%
proliferation (WM983-B melanoma cells [9]): inhibited the proliferation of both cell lines to a significant extent
number of cells killed (LDH release) compared with WM983-B (WM852 melanoma cells): significantly lower
proliferation of residual cells after removal of compound (WM983-A melanoma cells; removal of compound-containing medium at 96 hr, then serum-free medium): not able to proliferate again
proliferation (WM983-A melanoma cells; single dose of 10 μM, 24 hr): inhibited the proliferation of both cell lines to a significant extent
